Test results from US9512144B2, “Imidazothiazole sufonamides as nematicides” (BAYER CROPSCIENCE AKTIENGESELLSCHAFT, priority 2013, dated 2016).

What was measured:
Meloidogyne incognita [1] = assay: Meloidogyne incognita test (MELGIN): sand, salad seeds, gall formation after 14 days; type: in vivo; settings: application rate 20 ppm, salad seedlings in sand
Protocol: Solvent: 125.0 parts by weight of acetone To produce a suitable preparation of active compound, 1 part by weight of active compound is mixed with the stated amount of solvent, and the concentrate is diluted with water to the desired concentration. Vessels are filled with sand, a solution of the active ingredient, a suspension containing eggs and larvae of the southern root-knot nematode (Meloidogyne incognita) and salad seeds. The salad seeds germinate and the seedlings grow. Galls develop in the roots. After 14 days the nematicidal activity is determined on the basis of the percentage of gall formation. 100% means that no galls were found; 0% means that the number of galls found on the roots of the treated plants was equal to that in untreated control plants.

Meloidogyne incognita [2] = assay: Meloidogyne incognita test: compound solution poured into pots with soil (loamy sand), salad seeds, gall formation after 21 days; type: in vivo; settings: salad in soil
Protocol: Solvent: 7 parts by weight of dimethylformamide Emulsifier: 2.5 parts by weight of alkylarylpolyglycolether To produce a suitable preparation of active compound, 1 part by weight of active compound is mixed with the stated amount of solvent and emulsifier and is diluted with water to the desired concentration. In the calculation of the concentration the soil volume has to be included. […] Further test concentrations are prepared by dilution with water. The compound solution is poured into pots filled with soil (loamy sand). A suspension containing eggs and larvae of the southern root-knot nematode (Meloidogyne incognita) is added, salad seeds are spread on the soil surface and covered with quartz sand. The salad seeds germinate and the seedlings grow. Galls develop on the roots. After 21 days the nematicidal activity is determined on the basis of the percentage of gall formation. 100% means no galls were found; 0% means the number of galls found on the roots of the treated plants was equal to that in untreated control plants.

| SMILES | nematicidal activity on the basis of the percentage of gall formation (100% = no galls) (Meloidogyne incognita [1]) | nematicidal activity on the basis of the percentage of gall formation (100% = no galls) (Meloidogyne incognita [2]; application rate 2 ppm) | nematicidal activity on the basis of the percentage of gall formation (100% = no galls) (Meloidogyne incognita [2]; application rate 4 ppm) | nematicidal activity on the basis of the percentage of gall formation (100% = no galls) (Meloidogyne incognita [2]; application rate 8 ppm) | nematicidal activity on the basis of the percentage of gall formation (100% = no galls) (Meloidogyne incognita [2]; application rate 1 ppm) |
| --- | --- | --- | --- | --- | --- |
| COc1ccc(Cl)c(S(=O)(=O)NC(=O)c2cn3cc(C(F)(F)F)sc3n2)c1 [Example I-1-1, N-[(2-chloro-5-methoxyphenyl)sulfonyl]-2-(trifluoromethyl)imidazo[2,1-b][1,3]thiazole-6-carboxamide] | 100% | 95% |  |  |  |
| O=C(NS(=O)(=O)c1ccccc1Cl)c1cn2cc(C(F)(F)F)sc2n1 [Example I-1-3] | 100% | 95% |  |  |  |
| O=C(NS(=O)(=O)c1cc(C(F)(F)F)ccc1Br)c1cn2cc(C(F)(F)F)sc2n1 [Example I-1-5] | 100% |  | 90% |  |  |
| Cc1ccc(Cl)cc1S(=O)(=O)NC(=O)c1cn2cc(C(F)(F)F)sc2n1 [Example I-1-8] | 100% |  | 95% |  |  |
| Cc1ccc(C)c(S(=O)(=O)NC(=O)c2cn3cc(C(F)(F)F)sc3n2)c1 [Example I-1-9] | 100% |  |  | 100% |  |
| O=C(NS(=O)(=O)c1c(Cl)cccc1Cl)c1cn2cc(C(F)(F)F)sc2n1 [Example I-1-10] | 100% |  |  | 98% |  |
| O=C(NS(=O)(=O)c1cc2c(cc1Cl)OC(F)(F)O2)c1cn2cc(C(F)(F)F)sc2n1 [Example I-1-12] | 100% |  |  | 95% |  |
| COc1ccc(F)c(S(=O)(=O)NC(=O)c2cn3cc(C(F)(F)F)sc3n2)c1 [Example I-1-27] | 100% | 80% |  |  |  |
| O=C(NS(=O)(=O)c1ccccc1Cl)c1cn2cc(C(F)(F)C(F)(F)F)sc2n1 [Example I-1-142] | 100% |  | 80% |  |  |
| O=C(NS(=O)(=O)c1c(Cl)cccc1Cl)c1cn2cc(C(F)(F)C(F)(F)F)sc2n1 [Example I-1-146] | 100% |  |  | 90% |  |
| COc1ccc(Cl)c(S(=O)(=O)NC(=O)c2cn3cc(C(F)(F)C(F)(F)F)sc3n2)c1 [Example I-1-147] | 100% |  |  | 85% |  |
| Cc1c(C(F)(F)F)sc2nc(C(=O)NS(=O)(=O)c3ccccc3Cl)cn12 [Example I-1-154] | 90% |  | 99% |  |  |
| O=C(NS(=O)(=O)c1cc(Cl)ccc1Br)c1cn2cc(C(F)(F)F)sc2n1 [Example I-1-205] | 100% |  | 95% |  |  |
| COc1ccc(Br)c(S(=O)(=O)NC(=O)c2cn3cc(C(F)(F)F)sc3n2)c1 [Example I-1-206] | 100% |  | 100% |  |  |
| CCCOc1ccc(Cl)c(S(=O)(=O)NC(=O)c2cn3cc(C(F)(F)F)sc3n2)c1 [Example I-1-207] | 100% |  | 95% |  |  |
| CC(C)Oc1ccc(Cl)c(S(=O)(=O)NC(=O)c2cn3cc(C(F)(F)F)sc3n2)c1 [Example I-1-208] | 100% |  |  |  | 90% |
| O=C(NS(=O)(=O)c1cc(Br)ccc1Cl)c1cn2cc(C(F)(F)F)sc2n1 [Example I-1-209] | 100% |  | 90% |  |  |

| SMILES | nematicidal activity on the basis of the percentage of gall formation (100% = no galls) (Meloidogyne incognita [1]) | nematicidal activity on the basis of the percentage of gall formation (100% = no galls) (Meloidogyne incognita [2]; application rate 2 ppm) | nematicidal activity on the basis of the percentage of gall formation (100% = no galls) (Meloidogyne incognita [2]; application rate 4 ppm) | nematicidal activity on the basis of the percentage of gall formation (100% = no galls) (Meloidogyne incognita [2]; application rate 8 ppm) | nematicidal activity on the basis of the percentage of gall formation (100% = no galls) (Meloidogyne incognita [2]; application rate 1 ppm) |
| --- | --- | --- | --- | --- | --- |
| O=C(NS(=O)(=O)c1c(F)cccc1F)c1cn2cc(C(F)(F)C(F)(F)F)sc2n1 [Example I-1-222] | 100% |  |  | 90% |  |
| O=C(NS(=O)(=O)c1cc(C(F)(F)F)ccc1Br)c1cn2cc(C(F)(F)C(F)(F)F)sc2n1 [Example I-1-223] | 100% |  | 80% |  |  |
| Cc1ccc(C)c(S(=O)(=O)NC(=O)c2cn3cc(C(F)(F)C(F)(F)F)sc3n2)c1 [Example I-1-225] | 90% |  |  | 80% |  |
| O=C(NS(=O)(=O)c1ccccc1F)c1cn2cc(C(F)(F)C(F)(F)F)sc2n1 [Example I-1-226] | 100% |  |  | 80% |  |
| O=C(NS(=O)(=O)c1ccccc1Br)c1cn2cc(C(F)(F)C(F)(F)F)sc2n1 [Example I-1-227] | 100% |  |  | 100% |  |
| COc1ccc(Br)c(S(=O)(=O)NC(=O)c2cn3cc(C(F)(F)C(F)(F)F)sc3n2)c1 [Example I-1-243] | 100% |  |  | 95% |  |
| COc1ccc(Cl)c(S(=O)(=O)NC(=O)c2cn3c(C)c(C(F)(F)C(F)(F)F)sc3n2)c1 [Example I-1-251] | 100% |  |  | 98% |  |
| Cc1c(C(F)(F)C(F)(F)F)sc2nc(C(=O)NS(=O)(=O)c3c(F)cccc3F)cn12 [Example I-1-252] | 90% |  |  | 95% |  |
| CCCOc1ccc(Cl)cc1S(=O)(=O)NC(=O)c1cn2cc(C(F)(F)F)sc2n1 [Example I-1-313] | 100% |  |  |  |  |
| Cc1ccc(OC(F)F)c(S(=O)(=O)NC(=O)c2cn3cc(C(F)(F)F)sc3n2)c1 [Example I-1-314] | 90% |  |  |  |  |
| O=C(NS(=O)(=O)c1ccccc1Cl)c1nc2sc(C(F)(F)F)cn2c1Br [Example I-3-1] | 100% |  |  |  |  |
| COc1ccc(Cl)c(S(=O)(=O)NC(=O)c2nc3sc(C(F)(F)F)cn3c2Br)c1 [Example I-3-2] | 100% |  |  |  |  |
| O=C(NS(=O)(=O)c1ccccc1Cl)c1nc2sc(C(F)(F)F)cn2c1Cl [Example I-3-3] | 100% |  |  |  |  |
| COc1ccc(Cl)c(S(=O)(=O)NC(=O)c2nc3sc(C(F)(F)F)cn3c2Cl)c1 [Example I-3-4] | 100% |  |  |  |  |
| O=C(NS(=O)(=O)c1ccccc1Cl)c1nc2sc(C(F)(F)F)cn2c1I [Example I-3-5] | 100% |  |  |  |  |
| COc1ccc(Cl)c(S(=O)(=O)NC(=O)c2nc3sc(C(F)(F)F)cn3c2I)c1 [Example I-3-6] | 100% |  |  |  |  |
